Measured values published in patent US9328083B2, “2-aminated methylene or 2-esterified methylene tanshinone derivatives, and preparation method and application thereof” (HANGZHOU BENSHENG PHARMACEUTICAL CO., LTD., priority 2011, dated 2016).
In brackets after ≈: the same amount, converted by molar mass.

How the values were obtained:
[1] = system: RPMI8226 (multiple myeloma); experiment: MTT growth inhibition of multiple myeloma cells, 72 h; assay type: cell-based, human; settings: Homo sapiens, RPMI 8226, 72 h; for IC50: read-out: IC50; for IC90: read-out: IC90
Description: Myeloma cell lines: RPMI8226 (multiple myeloma), purchased from Fuxiang Bio-tech Co. Ltd., Shanghai, China.
(§1) The standard sample of tanshinone I (TA) and the 2-aminated methylene or 2-esterified methylene tanshinone I derivatives of the present invention are sufficiently dissolved with dimethylsulfoxide to produce a stock solution of 10 mg/mL, which is refrigerated at 4° C. and stored in dark, and is diluted with a cell culture medium to the desired concentration prior to experimentation.
Obtaining 6000 well-growing myeloma cells as above and inoculating them into wells of a 96-well cell culture plate. The culture medium is the 1640 cell culture medium containing 10% fetal bovine serum. After adding the 2-aminated methylene or 2-esterified methylene tanshinone I derivatives of different concentrations and mixing uniformly, placing the plate in a carbon dioxide cell incubator (5% CO2) at 37° C. and incubated for 72 hours. Then the viable cell concentration is determined by MTT method.

[2] = system: Kasumi-1 (acute myeloid leukemia M2 type, AML-M2); experiment: MTT growth inhibition of leukemia cells, 72 h; assay type: cell-based, human; settings: Homo sapiens, Kasumi-1, 72 h; for IC50: read-out: IC50; for IC90: read-out: IC90
From the text: (§2) Leukemia cell lines: leukemia cell lines: K562/adr (drug-resistant, chronic myeloid leukemia, CML), NB4 (acute promyelocytic leukemia, AML), Kasumi-1 (acute myeloid leukemia M2 type, AML-M2), and Jurkat (acute lymphoblastic leukemia, ALL), all of which are donated by Cancer Research Institute of Zhejiang University, China; and H9 (acute lymphoblastic leukemia, ALL), which is purchased from China Center for Type Culture Collection (CCTCC).
as §1
(§3) Obtaining 6000 well-growing leukemia cells and inoculating them into wells of a 96-well cell culture plate. The culture medium is the RPMI-1640 cell culture medium containing 10% fetal bovine serum. After adding on the second day the 2-aminated methylene or 2-esterified methylene tanshinone I derivatives of different concentrations and mixing uniformly, placing the plate in a carbon dioxide cell incubator (5% CO2) at 37° C. and incubated for 72 hours. Then the viable cell concentration is determined by MTT method.

[3] = system: K562/adr (drug-resistant, chronic myeloid leukemia, CML); experiment: MTT growth inhibition of leukemia cells, 72 h; assay type: cell-based, human; settings: Homo sapiens, K562/Adr; for IC50: read-out: IC50; for IC90: read-out: IC90
From the text: as §2, §1, §3

[4] = system: NB4 (acute promyelocytic leukemia, AML); experiment: MTT growth inhibition of leukemia cells, 72 h; assay type: cell-based, human; settings: for IC50 / IC90: Homo sapiens, NB4, 72 h; for IC50: read-out: IC50; for IC90: read-out: IC90
From the text: as §2, §1, §3

[5] = system: H9 (acute lymphoblastic leukemia, ALL); experiment: MTT growth inhibition of leukemia cells, 72 h; assay type: cell-based, human; settings: for improvement of anti-H9 activity as compared with tanshinone I: H9, vs tanshinone I; for IC50 / IC90: Homo sapiens, H9, 72 h; for IC50: read-out: IC50; for IC90: read-out: IC90
From the text: as §2, §1, §3

[6] = system: Jurkat (acute lymphoblastic leukemia, ALL); experiment: MTT growth inhibition of leukemia cells, 72 h; assay type: cell-based, human; settings: Homo sapiens, 72 h; for IC50: read-out: IC50; for IC90: read-out: IC90
From the text: as §2, §1, §3

[7] = system: MGC 803 (human gastric cancer cell); experiment: MTT growth inhibition of human solid tumor cells, 72 h; assay type: cell-based; settings: Homo sapiens, MGC-803, 72 h; for IC50: read-out: IC50; for IC90: read-out: IC90
Description: (§4) Hep-2 (laryngeal carcinoma), A549 (human lung cancer), CaES-17 (esophageal cancer cell), PC-3 (prostate cancer), CNE (nasopharyngeal carcinoma cell), and SK-OV-3 (ovarian cancer cell), all of which are purchased from China Center For Type Culture Collection; RKO (human colon adenocarcinoma cell), MGC 803 (human gastric cancer cell), MG63 (osteosarcoma) and U87 MG (malignant glioma cell), all of which are purchased from Fuxiang Bio-tech Co. Ltd., Shanghai, China; PANC-1 (pancreatic cancer), Hep G2 (human liver cancer cell), Becap37 (human breast cancer cell) and Hela (human cervical cancer cell), all of which are donated by Cancer Research Institute of Zhejiang University, China.
as §1
(§5) Obtaining 4000 well-growing human solid tumor cells and inoculating them into wells of a 96-well cell culture plate. The culture medium is DMEM High Glucose cell culture medium containing 10% fetal bovine serum. The plate is placed in a carbon dioxide cell incubator (5% CO2) at 37° C. and incubated for 24 hours. After adding the 2-aminated methylene or 2-esterified methylene tanshinone I derivatives of different concentrations and mixing uniformly, the plate is placed in a carbon dioxide cell incubator (5% CO2) at 37° C. and incubated for 72 hours. Then the viable cell concentration is determined by the MTT method.

[8] = system: CNE (nasopharyngeal carcinoma cell); experiment: as above; assay type: cell-based; settings: Homo sapiens; for IC50: read-out: IC50; for IC90: read-out: IC90
Description: as §4, §1, §5

[9] = system: Hep-2 (laryngeal carcinoma); experiment: as above; assay type: cell-based; settings: for IC50 / IC90: Homo sapiens, HEp-2, 72 h; for IC50: read-out: IC50; for IC90: read-out: IC90
Description: as §4, §1, §5

[10] = system: CaES-17 (esophageal cancer cell); experiment: as above; assay type: cell-based; settings: Homo sapiens, CaEs17, CaEs-17, 72 h; for IC50: read-out: IC50; for IC90: read-out: IC90
Description: as §4, §1, §5

[11] = system: Becap37 (human breast cancer cell); experiment: as above; assay type: cell-based; settings: Homo sapiens, Becap-37, 72 h; for IC50: read-out: IC50; for IC90: read-out: IC90
Description: as §4, §1, §5

A549 (human lung cancer) = experiment: as above; assay type: cell-based; settings: Homo sapiens, A549, 72 h; for IC50: read-out: IC50; for IC90: read-out: IC90
Description: as §4, §1, §5

MG63 (osteosarcoma) = experiment: as above; assay type: cell-based; settings: Homo sapiens, MG-63, 72 h; for IC50: read-out: IC50; for IC90: read-out: IC90
Description: as §4, §1, §5

PC-3 (prostate cancer) = experiment: as above; assay type: cell-based; settings: Homo sapiens, PC-3, 72 h; for IC50: read-out: IC50; for IC90: read-out: IC90
Description: as §4, §1, §5

[12] = system: Hep G2 (human liver cancer cell); experiment: as above; assay type: cell-based; settings: Homo sapiens, HepG2, Hep G2, 72 h; for IC50: read-out: IC50; for IC90: read-out: IC90
Description: as §4, §1, §5

[13] = system: U87 MG (malignant glioma cell); experiment: as above; assay type: cell-based; settings: for IC50 / IC90: Homo sapiens, U-87 MG, U87-MG, 72 h; for IC50: read-out: IC50; for IC90: read-out: IC90
Description: as §4, §1, §5

[14] = system: PANC-1 (pancreatic cancer); experiment: as above; assay type: cell-based; settings: Homo sapiens, PANC-1, 72 h; for IC50: read-out: IC50; for IC90: read-out: IC90
Description: as §4, §1, §5

[15] = system: RKO (human colon adenocarcinoma cell); experiment: as above; assay type: cell-based; settings: Homo sapiens; for IC50: read-out: IC50; for IC90: read-out: IC90
Description: as §4, §1, §5

[16] = system: Hela (human cervical cancer cell); experiment: as above; assay type: cell-based; settings: for IC50 / IC90: Homo sapiens, HeLa, 72 h; for IC50: read-out: IC50; for IC90: read-out: IC90
Description: as §4, §1, §5

[17] = system: SK-OV-3 (ovarian cancer cell); experiment: as above; assay type: cell-based; settings: Homo sapiens, SK-OV-3, 72 h; for IC50: read-out: IC50; for IC90: read-out: IC90
Description: as §4, §1, §5

Cc1c(CNCCO)oc2c1C(=O)C(=O)c1c-2ccc2c(C)cccc12 [BS-TA-65]
IC50 [1]: 0.125 µg/mL (≈ 0.358 µM)
IC90 [1]: 0.25 µg/mL (≈ 0.716 µM)
IC50 [2]: 0.074 µg/mL (≈ 0.212 µM)
IC90 [2]: 0.12 µg/mL (≈ 0.343 µM)
IC50 [3]: 0.16 µg/mL (≈ 0.458 µM)
IC90 [3]: 1.08 µg/mL (≈ 3.09 µM)
IC50 [4]: 0.04 µg/mL (≈ 0.114 µM)
IC90 [4]: 0.08 µg/mL (≈ 0.229 µM)
improvement of anti-NB4 activity as compared with tanshinone I ([4]; NB4, vs tanshinone I): 24 fold
improvement of anti-H9 activity as compared with tanshinone I [5]: 27 fold
IC50 [5]: 0.13 µg/mL (≈ 0.372 µM)
IC90 [5]: 0.41 µg/mL (≈ 1.17 µM)
IC50 [6]: 0.17 µg/mL (≈ 0.487 µM)
IC90 [6]: 0.47 µg/mL (≈ 1.35 µM)
IC50 [7]: 0.15 µg/mL (≈ 0.429 µM)
IC90 [7]: 1.7 µg/mL (≈ 4.87 µM)
IC50 [8]: 0.6 µg/mL (≈ 1.72 µM)
IC90 [8]: 1.8 µg/mL (≈ 5.15 µM)
IC50 [9]: 0.78 µg/mL (≈ 2.23 µM)
IC90 [9]: 2.38 µg/mL (≈ 6.81 µM)
IC50 [10]: 0.3 µg/mL (≈ 0.859 µM)
IC90 [10]: 0.81 µg/mL (≈ 2.32 µM)
IC50 [11]: 0.27 µg/mL (≈ 0.773 µM)
IC90 [11]: 0.68 µg/mL (≈ 1.95 µM)
IC50 (A549 (human lung cancer)): 0.979 µg/mL (≈ 2.8 µM)
IC90 (A549 (human lung cancer)): 3.52 µg/mL (≈ 10.1 µM)
IC50 (MG63 (osteosarcoma)): 0.31 µg/mL (≈ 0.887 µM)
IC90 (MG63 (osteosarcoma)): 0.98 µg/mL (≈ 2.8 µM)
IC50 (PC-3 (prostate cancer)): 0.44 µg/mL (≈ 1.26 µM)
IC90 (PC-3 (prostate cancer)): 3.58 µg/mL (≈ 10.2 µM)
IC50 [12]: 0.31 µg/mL (≈ 0.887 µM)
IC90 [12]: 1.5 µg/mL (≈ 4.29 µM)
IC50 [13]: 0.15 µg/mL (≈ 0.429 µM)
IC90 [13]: 0.35 µg/mL (≈ 1 µM)
improvement of anti-U87 MG activity as compared with tanshinone I ([13]; U87 MG, vs tanshinone I): more than 42 fold
IC50 [14]: 0.26 µg/mL (≈ 0.744 µM)
IC90 [14]: 1.9 µg/mL (≈ 5.44 µM)
IC50 [15]: 0.037 µg/mL (≈ 0.106 µM)
IC90 [15]: 0.29 µg/mL (≈ 0.83 µM)
IC50 [16]: 0.42 µg/mL (≈ 1.2 µM)
IC90 [16]: 1 µg/mL (≈ 2.86 µM)
IC50 [17]: 0.86 µg/mL (≈ 2.46 µM)
IC90 [17]: 1.91 µg/mL (≈ 5.47 µM)

Cc1c(CN(C)CCOC(=O)[C@@H](N)C(C)C)oc2c1C(=O)C(=O)c1c-2ccc2c(C)cccc12 [BS-TA-71]
IC50 [1]: 0.25 µg/mL (≈ 0.54 µM)
IC90 [1]: 0.83 µg/mL (≈ 1.79 µM)
IC50 [2]: 0.13 µg/mL (≈ 0.281 µM)
IC90 [2]: 0.39 µg/mL (≈ 0.843 µM)
IC50 [3]: 0.47 µg/mL (≈ 1.02 µM)
IC90 [3]: 0.76 µg/mL (≈ 1.64 µM)
IC50 [4]: 0.15 µg/mL (≈ 0.324 µM)
IC90 [4]: 0.41 µg/mL (≈ 0.886 µM)
improvement of anti-H9 activity as compared with tanshinone I [5]: 28 fold
IC50 [5]: 0.125 µg/mL (≈ 0.27 µM)
IC90 [5]: 0.49 µg/mL (≈ 1.06 µM)
IC50 [6]: 0.37 µg/mL (≈ 0.8 µM)
IC90 [6]: 0.94 µg/mL (≈ 2.03 µM)
IC50 [7]: 0.41 µg/mL (≈ 0.886 µM)
IC90 [7]: 2.24 µg/mL (≈ 4.84 µM)
IC50 [8]: 0.63 µg/mL (≈ 1.36 µM)
IC90 [8]: 1.43 µg/mL (≈ 3.09 µM)
improvement of anti-Hep-2 activity as compared with tanshinone I ([9]; Hep-2, vs tanshinone I): more than 4 fold
IC50 [9]: 0.62 µg/mL (≈ 1.34 µM)
IC90 [9]: 1.76 µg/mL (≈ 3.81 µM)
IC50 [10]: 0.52 µg/mL (≈ 1.12 µM)
IC90 [10]: 0.59 µg/mL (≈ 1.28 µM)
IC50 [11]: 0.4 µg/mL (≈ 0.865 µM)
IC90 [11]: 0.9 µg/mL (≈ 1.95 µM)
IC50 (A549 (human lung cancer)): 0.8 µg/mL (≈ 1.73 µM)
IC90 (A549 (human lung cancer)): 2.82 µg/mL (≈ 6.1 µM)
IC50 (MG63 (osteosarcoma)): 0.61 µg/mL (≈ 1.32 µM)
IC90 (MG63 (osteosarcoma)): 1.79 µg/mL (≈ 3.87 µM)
IC50 (PC-3 (prostate cancer)): 0.92 µg/mL (≈ 1.99 µM)
IC90 (PC-3 (prostate cancer)): 3.74 µg/mL (≈ 8.09 µM)
IC50 [12]: 0.66 µg/mL (≈ 1.43 µM)
IC90 [12]: 1.85 µg/mL (≈ 4 µM)
IC50 [13]: 0.66 µg/mL (≈ 1.43 µM)
IC90 [13]: 1.55 µg/mL (≈ 3.35 µM)
IC50 [14]: 0.4 µg/mL (≈ 0.865 µM)
IC90 [14]: 4.73 µg/mL (≈ 10.2 µM)
IC50 [15]: 0.14 µg/mL (≈ 0.303 µM)
IC90 [15]: 1.28 µg/mL (≈ 2.77 µM)
improvement of anti-Hela activity as compared with tanshinone I ([16]; Hela, vs tanshinone I): more than 8 fold
IC50 [16]: 0.47 µg/mL (≈ 1.02 µM)
IC90 [16]: 1.75 µg/mL (≈ 3.78 µM)
IC50 [17]: 1.66 µg/mL (≈ 3.59 µM)
IC90 [17]: 3.39 µg/mL (≈ 7.33 µM)
